The target of data set [1] is T1, Prostaglandin G/H synthase 1 (Ovis aries, UniProt P05979).
T1 sequence (P05979 whole entry): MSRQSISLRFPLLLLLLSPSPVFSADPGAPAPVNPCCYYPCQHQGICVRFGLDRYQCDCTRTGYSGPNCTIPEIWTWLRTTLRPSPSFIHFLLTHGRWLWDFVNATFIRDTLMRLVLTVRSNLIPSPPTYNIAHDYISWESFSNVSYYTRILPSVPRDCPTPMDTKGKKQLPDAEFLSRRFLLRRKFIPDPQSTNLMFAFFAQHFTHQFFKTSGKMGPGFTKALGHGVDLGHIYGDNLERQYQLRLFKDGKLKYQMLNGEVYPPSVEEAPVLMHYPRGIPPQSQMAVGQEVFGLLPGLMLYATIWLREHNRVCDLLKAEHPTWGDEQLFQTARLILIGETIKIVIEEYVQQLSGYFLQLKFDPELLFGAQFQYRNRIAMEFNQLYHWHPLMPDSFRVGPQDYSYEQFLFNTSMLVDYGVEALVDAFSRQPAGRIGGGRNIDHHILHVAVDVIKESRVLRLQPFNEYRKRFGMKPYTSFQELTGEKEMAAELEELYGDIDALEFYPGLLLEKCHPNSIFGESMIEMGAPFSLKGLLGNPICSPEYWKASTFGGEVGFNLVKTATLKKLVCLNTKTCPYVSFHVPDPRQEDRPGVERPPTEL
Nature of the data set: Inhibition of ovine COX1.

The nature of data set [2]: Cytotoxicity against HDF cells assessed as cell viability at 100 uM by MTT assay. Format: cell-based. As to conditions: human, read-out: Activity. A general note: Tetrazolium assays rely on reduction of a dye to a coloured formazan, in cell work by metabolically active cells.

What is called IC50 is the midpoint of a concentration-inhibition curve. A high value points to lower potency. Take `NC(=S)N/N=C\c1cn(-c2ccccc2)nc1-c1ccc(Cl)cc1`: the half-inhibitory concentration (IC50) in data set [1] is 56.3 µM. The viability at 100 µM in data set [2] was 71.7%.

The compound `NC(=S)N/N=C\c1cn(-c2ccccc2)nc1-c1ccc(Br)cc1` registered an IC50 in data set [1] of 60.3 µM. Also, the viability at 100 µM in data set [2] is 57.6%.

As to `COc1ccc(-c2nn(-c3ccccc3)cc2/C=N\NC(N)=S)cc1`, in data set [1], the IC50 stood at 62.3 µM. Further, the viability at 100 µM in data set [2] is 63.4%.

Consider `S=C(N/N=C\c1cn(-c2ccccc2)nc1-c1ccc(Cl)cc1)Nc1ccccc1`, for which, in data set [1], half-maximal inhibition (IC50) required 64.5 µM. Further, in data set [2], the viability at 100 µM came out at 61.7%.

As for `S=C(N/N=C\c1cn(-c2ccccc2)nc1-c1ccc(Br)cc1)Nc1ccccc1`, the IC50 in data set [1] is 65.7 µM. In data set [2], the viability at 100 µM worked out at 58.7%.

The compound `COc1ccc(-c2nn(-c3ccccc3)cc2/C=N\NC(=S)Nc2ccccc2)cc1` displayed an IC50 in data set [1] of 42.3 µM. In addition, the viability at 100 µM in data set [2] amounted to 52.6%.

`O=C1CSC(N/N=C\c2cn(-c3ccccc3)nc2-c2ccc(Cl)cc2)=N1` gave an IC50 in data set [1] of 60.7 µM. In addition, the viability at 100 µM in data set [2] was 58.7%.

For `O=C1CSC(N/N=C\c2cn(-c3ccccc3)nc2-c2ccc(Br)cc2)=N1`, 66.3 µM corresponded to half-maximal inhibition in data set [1] (IC50). Besides, the viability at 100 µM in data set [2] amounted to 55.6%.

In data set [1], `COc1ccc(-c2nn(-c3ccccc3)cc2/C=N\NC2=NC(=O)CS2)cc1` came in with an IC50 of 71.3 µM. In data set [2], the viability at 100 µM came to 59.7%.

On to `O=C1CS/C(=N/N=C\c2cn(-c3ccccc3)nc2-c2ccc(Cl)cc2)N1c1ccccc1`, for which the midpoint of inhibition in data set [1], the IC50, lay at 62.3 µM. In addition, the viability at 100 µM in data set [2] came to 60.7%.

For `O=C1CS/C(=N/N=C\c2cn(-c3ccccc3)nc2-c2ccc(Br)cc2)N1c1ccccc1`, 60.5 µM corresponded to half-maximal inhibition in data set [1] (IC50). The viability at 100 µM in data set [2] stood at 57.4%.

In data set [1], `COc1ccc(-c2nn(-c3ccccc3)cc2/C=N\N=C2\SCC(=O)N2c2ccccc2)cc1` gave a 50% inhibitory concentration (IC50) of 62.3 µM. In data set [2], the viability at 100 µM came out at 63.4%.

In data set [1], `CC(=O)NC1=NN(C(C)=O)C(c2cn(-c3ccccc3)nc2-c2ccc(Cl)cc2)S1` (stereo unspecified) returned a concentration for half-maximal inhibition (IC50) of 70.3 µM. The viability at 100 µM in data set [2] was 57.7%.

In turn, `CC(=O)NC1=NN(C(C)=O)C(c2cn(-c3ccccc3)nc2-c2ccc(Br)cc2)S1` (stereo unspecified) yielded an IC50 in data set [1] of 64.7 µM. In addition, in data set [2], the viability at 100 µM turned out to be 51.6%.

The compound `COc1ccc(-c2nn(-c3ccccc3)cc2C2SC(NC(C)=O)=NN2C(C)=O)cc1` (stereo unspecified) came in with an IC50 in data set [1] of 80.3 µM. The viability at 100 µM in data set [2] is 56.7%.

`CC(=O)N(C1=NN(C(C)=O)C(c2cn(-c3ccccc3)nc2-c2ccc(Cl)cc2)S1)c1ccccc1` (stereo unspecified) showed an IC50 in data set [1] of 70.3 µM. Moreover, the viability at 100 µM in data set [2] was 61.7%.

`CC(=O)N(C1=NN(C(C)=O)C(c2cn(-c3ccccc3)nc2-c2ccc(Br)cc2)S1)c1ccccc1` (stereo unspecified) came in with a 50% inhibitory concentration (IC50) in data set [1] of 72.7 µM. Also, in data set [2], the viability at 100 µM was 51.4%.

As to `COc1ccc(-c2nn(-c3ccccc3)cc2C2SC(N(C(C)=O)c3ccccc3)=NN2C(C)=O)cc1` (stereo unspecified), half-maximal inhibition in data set [1] (IC50) was put at 64.7 µM. Also, the viability at 100 µM in data set [2] was 61.4%.

For the origin of these results see ChEMBL document CHEMBL3351407, “Synthesis of novel pyrazole–thiadiazole hybrid as potential potent and selective cyclooxygenase-2 (COX-2) inhibitors” (Bioorg Med Chem Lett, 2014).
